Measured values published in publication PMC6028563, “Probing Substituents in the 1- and 3-Position: Tetrahydropyrazino-Annelated Water-Soluble Xanthine Derivatives as Multi-Target Drugs With Potent Adenosine Receptor Antagonistic Activity” (Frontiers in Chemistry, 2018).

Key:
[1] = molecular target: T1, human A2A AR (Homo sapiens, UniProt P29274); assay: Radioligand binding assay at human A2A AR vs. [^3H]MSX-2; conditions: CHO cell membranes, n = 3, read-out: Ki ± SEM, A2A vs. [^3H]MSX-2
T1 construct: expressed in transfected cells; host or cells: CHO cells
Description: (§1) Membrane preparations and radioligand binding assays at rat A1 (rat brain cortex) and rat A2A ARs (rat brain striatum) were performed as previously described (Ozola et al., [2003]; Alnouri et al., [2015]). For assays at human A1, A2A, A2B, and A3 ARs, CHO cell membranes expressing one of the human AR subtypes were used as previously reported (Klotz et al., [1998]; Alnouri et al., [2015]; De Filippo et al., [2016]).
(§2) The synthesized tetrahydropyrazino[2,1-f ]purinediones 13–20 were evaluated in radioligand binding assays for their affinity to A1 ARs of rat brain cortical membrane and to A2A ARs of rat brain striatal membrane preparations. Selected compounds were further investigated for their affinity to human A1 and A2A ARs recombinantly expressed in Chinese hamster ovary (CHO) cells. All compounds were additionally investigated for their affinity to human A2B and A3 ARs recombinantly expressed in CHO cells to determine their AR subtype selectivity. […] It is well known that all xanthine derivatives lacking a ribose moiety, including tricyclic compounds, can only block ARs, but never act as AR agonists; therefore, additional functional studies were not required. […] Potent MAO-B inhibitors were additionally investigated for inhibition of human MAO-A to assess their selectivity. Results are presented in Tables 1–6, and data of standard ligands are included for comparison.

[2] = molecular target: T2, recombinant human MAO-B (Homo sapiens, UniProt P27338); assay: Monoamine oxidase assay (Amplex Red), MAO-B; format: biochemical; conditions: for inhibition at 10 µM: at 10,000 nM (10 μM), read-out: % inhibition at indicated concentration, Human MAO-B; for IC50: n = 3, read-out: IC50 ± SEM, Human MAO-B
T2 construct: purchased Sigma-Aldrich M7441; host or cells: baculovirus-infected insect cells
T2 sequence (P27338 1-520): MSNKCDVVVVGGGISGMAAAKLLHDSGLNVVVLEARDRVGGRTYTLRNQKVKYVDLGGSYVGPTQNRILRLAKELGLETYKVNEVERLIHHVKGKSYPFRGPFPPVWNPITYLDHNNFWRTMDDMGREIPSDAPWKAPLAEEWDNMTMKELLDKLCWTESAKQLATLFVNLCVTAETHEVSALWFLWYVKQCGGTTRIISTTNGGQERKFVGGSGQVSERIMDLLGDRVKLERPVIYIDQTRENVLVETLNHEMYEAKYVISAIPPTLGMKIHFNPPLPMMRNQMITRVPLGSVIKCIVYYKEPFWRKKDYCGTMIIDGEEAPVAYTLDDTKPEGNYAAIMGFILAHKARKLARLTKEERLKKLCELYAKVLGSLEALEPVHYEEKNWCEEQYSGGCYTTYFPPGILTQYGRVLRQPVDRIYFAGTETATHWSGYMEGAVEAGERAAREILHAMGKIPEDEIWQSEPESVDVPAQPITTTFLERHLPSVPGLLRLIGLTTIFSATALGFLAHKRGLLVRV
In short: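 Recombinant human MAO-A and MAO-B, expressed in baculovirus-infected insect cells, were assayed by Amplex Red fluorometric detection. Rat MAO-B inhibition used mitochondria-enriched fractions from male Sprague Dawley rat liver.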

[3] = molecular target: T3, human A2B AR (Homo sapiens, UniProt P29275); assay: Radioligand binding assay at human A2B AR vs. [^3H]PSB-603; conditions: for Ki: CHO cell membranes, n = 2 (n = 3 where marked a), read-out: Ki ± SEM, A2B vs. [^3H]PSB-603; for inhibition at 1 µM: at 1,000 nM, read-out: % inhibition of radioligand binding at indicated concentration, A2B vs. [^3H]PSB-603
T3 construct: expressed in transfected cells; host or cells: CHO cells
T3 sequence (P29275 1-332): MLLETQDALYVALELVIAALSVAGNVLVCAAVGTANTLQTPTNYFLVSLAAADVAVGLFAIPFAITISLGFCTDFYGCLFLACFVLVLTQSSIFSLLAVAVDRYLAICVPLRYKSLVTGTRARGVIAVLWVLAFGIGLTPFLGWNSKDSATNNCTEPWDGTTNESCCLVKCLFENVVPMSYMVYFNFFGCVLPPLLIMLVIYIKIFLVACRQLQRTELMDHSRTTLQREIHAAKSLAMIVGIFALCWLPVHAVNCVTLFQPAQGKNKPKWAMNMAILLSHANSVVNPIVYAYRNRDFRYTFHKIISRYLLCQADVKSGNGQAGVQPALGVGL
In short: (§3)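 Membranes were prepared from rat brain cortex for A1 and from rat striatum for A2A, then used in radioligand displacement. For the human receptors, CHO cells recombinantly expressing a single AR subtype supplied the membranes.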

[4] = molecular target: T4, rat A1 AR (Rattus norvegicus, UniProt P25099); assay: Radioligand binding assay at rat A1 AR (rat brain cortex) vs. [^3H]CCPA; conditions: rat (r); rat brain cortex; n = 3
T4 construct: A1 ARs of rat brain cortical membrane; from tissue; host or cells: rat brain cortex membranes
T4 sequence (P25099 1-326): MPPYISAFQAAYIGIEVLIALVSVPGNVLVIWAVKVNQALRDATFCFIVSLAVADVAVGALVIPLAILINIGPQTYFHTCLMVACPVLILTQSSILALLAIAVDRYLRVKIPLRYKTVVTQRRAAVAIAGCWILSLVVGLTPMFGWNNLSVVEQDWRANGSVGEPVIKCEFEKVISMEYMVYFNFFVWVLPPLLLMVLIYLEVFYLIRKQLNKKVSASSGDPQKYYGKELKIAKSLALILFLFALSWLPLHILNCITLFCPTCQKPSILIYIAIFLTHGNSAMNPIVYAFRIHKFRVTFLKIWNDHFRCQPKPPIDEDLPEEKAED
In short: as §3

[5] = molecular target: T5, rat A2A AR (Rattus norvegicus, UniProt P30543); assay: Radioligand binding assay at rat A2A AR (rat brain striatum) vs. [^3H]MSX-2; conditions: rat (r); rat brain striatum; n = 3; read-out: Ki ± SEM, A2A vs. [^3H]MSX-2
T5 construct: A2A ARs of rat brain striatal membrane preparations; from tissue; host or cells: rat brain striatum membranes
In short: as §3

[6] = molecular target: T6, human A1 AR (Homo sapiens, UniProt P30542); assay: Radioligand binding assay at human A1 AR vs. [^3H]CCPA; conditions: human (h); CHO cell membranes; n = 3
T6 construct: expressed in transfected cells; host or cells: CHO cells
T6 sequence (P30542 1-326): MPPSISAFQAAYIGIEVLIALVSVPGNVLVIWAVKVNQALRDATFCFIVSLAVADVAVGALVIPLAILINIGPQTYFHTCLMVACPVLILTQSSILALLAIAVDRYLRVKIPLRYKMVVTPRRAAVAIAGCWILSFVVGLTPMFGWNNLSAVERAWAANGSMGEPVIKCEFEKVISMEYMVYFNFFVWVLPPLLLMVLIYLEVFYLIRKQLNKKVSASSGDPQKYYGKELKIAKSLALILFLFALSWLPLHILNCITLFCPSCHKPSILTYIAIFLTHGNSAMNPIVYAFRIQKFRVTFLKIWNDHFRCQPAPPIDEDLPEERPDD
Description: as §1, §2

[7] = molecular target: T7, human A3 AR (Homo sapiens, UniProt P0DMS8); assay: Radioligand binding assay at human A3 AR vs. [^3H]PSB-11; conditions: for Ki: CHO cell membranes, n = 2 (n = 3 where marked a), read-out: Ki ± SEM, A3 vs. [^3H]PSB-11; for inhibition at 10 µM: at 10,000 nM, read-out: % inhibition of radioligand binding at indicated concentration, A3 vs. [^3H]PSB-11
T7 construct: expressed in transfected cells; host or cells: CHO cells
T7 sequence (P0DMS8 1-318): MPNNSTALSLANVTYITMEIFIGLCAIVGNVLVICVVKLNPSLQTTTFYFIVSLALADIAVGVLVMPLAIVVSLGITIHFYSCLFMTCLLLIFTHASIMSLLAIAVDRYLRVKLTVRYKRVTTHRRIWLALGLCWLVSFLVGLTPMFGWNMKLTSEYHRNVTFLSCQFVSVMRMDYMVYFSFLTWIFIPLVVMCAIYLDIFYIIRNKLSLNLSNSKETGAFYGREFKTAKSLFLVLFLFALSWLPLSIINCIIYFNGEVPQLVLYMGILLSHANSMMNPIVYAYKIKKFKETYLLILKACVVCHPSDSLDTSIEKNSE
In short: as §3

T1 sequence (P29274 whole entry): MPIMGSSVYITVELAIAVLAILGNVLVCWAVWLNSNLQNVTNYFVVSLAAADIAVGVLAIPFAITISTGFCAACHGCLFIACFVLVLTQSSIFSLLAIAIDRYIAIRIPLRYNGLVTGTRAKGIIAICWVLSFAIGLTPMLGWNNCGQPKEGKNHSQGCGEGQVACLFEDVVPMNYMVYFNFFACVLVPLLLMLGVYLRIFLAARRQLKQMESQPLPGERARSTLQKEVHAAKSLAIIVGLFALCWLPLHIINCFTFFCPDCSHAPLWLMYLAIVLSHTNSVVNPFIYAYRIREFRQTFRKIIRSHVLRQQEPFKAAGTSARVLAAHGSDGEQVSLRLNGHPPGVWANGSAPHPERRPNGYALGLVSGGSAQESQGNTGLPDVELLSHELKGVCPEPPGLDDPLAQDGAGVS
T5 sequence (P30543 whole entry): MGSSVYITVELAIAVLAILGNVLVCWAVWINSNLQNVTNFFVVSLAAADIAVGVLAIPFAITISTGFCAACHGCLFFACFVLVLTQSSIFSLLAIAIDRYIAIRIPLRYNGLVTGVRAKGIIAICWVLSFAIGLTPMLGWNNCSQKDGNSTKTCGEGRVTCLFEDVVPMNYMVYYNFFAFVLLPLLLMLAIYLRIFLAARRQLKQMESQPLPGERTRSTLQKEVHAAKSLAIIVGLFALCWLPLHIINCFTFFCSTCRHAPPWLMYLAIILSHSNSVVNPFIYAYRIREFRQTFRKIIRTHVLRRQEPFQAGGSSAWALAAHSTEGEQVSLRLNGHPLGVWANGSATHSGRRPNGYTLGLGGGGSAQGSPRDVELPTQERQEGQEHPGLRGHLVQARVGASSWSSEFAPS

Compound	Ki [1]	inhibition at 10 µM [2]	IC50 [2]	Ki [3]	Ki [4]	Ki [5]	Ki [6]	Ki [7]	inhibition at 1 µM [3]	inhibition at 10 µM [7]
CCn1c(=O)c2c(nc3n2CCN(Cc2cccc(Br)c2)C3)n(CC)c1=O [Compound 15d, 8-(3-bromobenzyl)-1,3-diethyl-6,7,8,9-tetrahydropyrazino[2,1-f]purine-2,4(1H,3H)-dione]	1050 nM	49%	≥ 10000 nM	496 ± 135 nM	21.5 ± 8.3 nM	1040 nM	13.6 ± 2.1 nM	7220 nM		
CCn1c(=O)c2c(nc3n2CCN(Cc2cccc(C(F)(F)F)c2F)C3)n(CC)c1=O [Compound 15h, 1,3-diethyl-8-(2-fluoro-3-(trifluoromethyl)benzyl)-6,7,8,9-tetrahydropyrazino[2,1-f]purine-2,4(1H,3H)-dione]	663 ± 54 nM	32%	> 10000 nM	> 1000 nM	172 ± 28 nM	895 ± 210 nM	189 ± 29 nM	> 10000 nM	30%	29%
C#CCn1c(=O)c2c(nc3n2CCN(c2ccc(F)cc2)C3)n(CC)c1=O [Compound 20b, 1-ethyl-8-(4-fluorophenyl)-3-propargyl-6,7,8,9-tetrahydropyrazino[2,1-f]purine-2,4(1H,3H)-dione]	378 ± 49 nM	35%	> 10000 nM	> 1000 nM	410 ± 60 nM	128 ± 20 nM	1530 nM	2390 nM	15%	
C#CCn1c(=O)c2c(nc3n2CCN(Cc2ccccc2)C3)n(CC)c1=O [Compound 20e, 8-benzyl-1-ethyl-3-propargyl-6,7,8,9-tetrahydropyrazino[2,1-f]purine-2,4(1H,3H)-dione]	282 ± 38 nM	20%	> 10000 nM	> 1000 nM	118 ± 28 nM	245 ± 39 nM	180 ± 28 nM	> 10000 nM	2%	35%
C#CCn1c(=O)c2c(nc3n2CCN(Cc2ccccc2OC)C3)n(CC)c1=O [Compound 20f, 1-ethyl-8-(2-methoxybenzyl)-3-propargyl-6,7,8,9-tetrahydropyrazino[2,1-f]purine-2,4(1H,3H)-dione]	311 ± 106 nM	27%	> 10000 nM	> 1000 nM	32.7 ± 5.8 nM	1200 nM	210 ± 90 nM	7640 nM	18%	
C#CCn1c(=O)c2c(nc3n2CCN(Cc2cccc(OC)c2)C3)n(CC)c1=O [Compound 20g, 1-ethyl-8-(3-methoxybenzyl)-3-propargyl-6,7,8,9-tetrahydropyrazino[2,1-f]purine-2,4(1H,3H)-dione]	542 ± 169 nM	41%	> 10000 nM	> 1000 nM	118 ± 22 nM	769 ± 77 nM	124 ± 90 nM	> 10000 nM	22%	40%
C#CCn1c(=O)c2c(nc3n2CCN(CCc2ccccc2)C3)n(CC)c1=O [Compound 20h, 1-ethyl-8-phenethyl-3-propargyl-6,7,8,9-tetrahydropyrazino[2,1-f]purine-2,4(1h,3h)-dione]	149 ± 28 nM	27%	> 10000 nM	> 1000 nM	117 ± 2 nM	1700 nM	2440 nM	> 10000 nM	16%	36%
C#CCn1c(=O)c2c(nc3n2CCN(CCc2ccccc2OC)C3)n(CC)c1=O [Compound 20i, 1-ethyl-8-(2-methoxyphenethyl)-3-propargyl-6,7,8,9-tetrahydropyrazino[2,1-f]purine-2,4(1H,3H)-dione]	3230 nM	26%	> 10000 nM	> 1000 nM	701 ± 204 nM	883 ± 265 nM	1260 nM	5830 nM	24%	
